From patent publication US9394300B2, “Quinolone derivatives” (Cadila Healthcare Limited, priority 2012, dated 2016)

How the values were obtained:
C57 Mice [1] = experiment: Estimating circulating EPO release in mice (plasma EPO by mouse EPO ELISA); format: in vivo; conditions: plasma six hours after administration, EPO in control = 62 ng/mL
Description: (1) Protocol for Estimating Circulating EPO Release in Mice
C57 Mice were administered various doses (10 mg/kg, 30 mg/kg, 50 mg/kg, 100 mg/kg) of compounds of the present invention by oral gavage at 10 ml/kg. Six hours after compound administration, mice were bled by retro-orbital puncture, under light ether anesthesia in microfuge tubes containing 2% EDTA (10 μl/100 μl of blood). Plasma was separated and analyzed for EPO content by mouse EPO ELISA.

C57 Mice [2] = experiment: Estimating hemoglobin levels in mice; format: in vivo; conditions: oral once daily for 7 consecutive days at 20 mg/kg, whole blood on 8th day
Description: (2) Protocol for Estimating Hemoglobin Levels in Mice
C57 mice were administered compounds of the present invention at 10 ml/kg by oral route daily once in the morning for 7 consecutive days at 20 mg/kg. On 8th day animals were bled by retro-orbital puncture under light ether anesthesia in microfuge tubes containing 2% EDTA (10 μl/100 μl of blood) for whole blood. Hemoglobin, Reticulocyte count and RBC count were measured using standard procedures.

With `COn1c(=O)c(C(=O)NCC(=O)O)c(O)c2ccccc21` [Example 11, 2-(4-hydroxy-1-methoxy-2-oxo-1,2-dihydroquinoline-3-carboxamido)acetic acid] as the compound, how does the “EPO (ng/mL) oral gavage 100 mg/kg” value (C57 Mice [1]) read?
Its value is 1593 ng/mL.

Which results are given for `O=C(O)CNC(=O)c1c(O)c2ccccc2n(OCC2CC2)c1=O` [Example 2, 2-(1-(cyclopropylmethoxy)-4-hydroxy-2-oxo-1,2-dihydroquinoline-3-carboxamido)acetic acid]?
Hemoglobin (g/dL) 20 mg/kg compound (C57 Mice [2]): 16.3 g/dL; EPO (ng/mL) oral gavage 10 mg/kg (C57 Mice [1]): 396 ng/mL; EPO (ng/mL) oral gavage 30 mg/kg (C57 Mice [1]): 4822 ng/mL

Which “EPO (ng/mL) oral gavage 50 mg/kg” value (C57 Mice [1]) does the source give for `O=C(O)CNC(=O)c1c(O)c2ccccc2n(OCc2ccccc2F)c1=O` [Example 62, 2-(1-((2-fluorobenzyl)oxy)-4-hydroxy-2-oxo-1,2-dihydroquinoline-3-carboxamido)acetic acid] here?
The value was 398 ng/mL.

For `O=C(O)CNC(=O)c1c(O)c2ccccc2n(OCc2ccccc2)c1=O` [Example 1, 2-(1-(benzyloxy)-4-hydroxy-2-oxo-1,2-dihydroquinoline-3-carboxamido)acetic acid], which “EPO (ng/mL) oral gavage 100 mg/kg” value (C57 Mice [1]) is on record?
The value was 7118 ng/mL.

Which “EPO (ng/mL) oral gavage 50 mg/kg” value (C57 Mice [1]) does the source give for `COc1ccc(COn2c(=O)c(C(=O)NCC(=O)O)c(O)c3ccccc32)cc1` [Example 67, 2-(4-hydroxy-1-((4-methoxybenzyl)oxy)-2-oxo-1,2-dihydroquinoline-3-carboxamido)acetic acid] here?
The value was 477 ng/mL.

For `O=C(O)CNC(=O)c1c(O)c2ccccc2n(OCc2c(F)cccc2F)c1=O` [Example 16, 2-(1-((2,6-difluorobenzyl)oxy)-4-hydroxy-2-oxo-1,2-dihydroquinoline-3-carboxamido)acetic acid], which “EPO (ng/mL) oral gavage 10 mg/kg” value (C57 Mice [1]) is on record?
Its value is 100 ng/mL.

What about the “EPO (ng/mL) oral gavage 50 mg/kg” value (C57 Mice [1]) of the same compound?
Its value is 8043 ng/mL.

Which “Hemoglobin (g/dL) 20 mg/kg compound” value (C57 Mice [2]) does the source give for `O=C(N[C@H](C(=O)O)c1ccccc1)c1c(O)c2ccccc2n(OCC2CC2)c1=O` [Example 47, (S)-2-(1-(cyclopropylmethoxy)-4-hydroxy-2-oxo-1,2-dihydroquinoline-3-carboxamido)-2-phenylacetic acid] here?
Its value is 14.2 g/dL.

With `O=C(O)CNC(=O)c1c(O)c2ccccc2n(OCC2CCCCC2)c1=O` [Example 44, 2-(1-(cyclohexylmethoxy)-4-hydroxy-2-oxo-1,2-dihydroquinoline-3-carboxamido)acetic acid] as the compound, how does the “Hemoglobin (g/dL) 20 mg/kg compound” value (C57 Mice [2]) read?
The value was 16.1 g/dL.

Which results are given for `CCCOn1c(=O)c(C(=O)NCC(=O)O)c(O)c2ccccc21` [Example 21, 2-(4-hydroxy-2-oxo-1-propoxy-1,2-dihydroquinoline-3-carboxamido) acetic acid]?
Hemoglobin (g/dL) 20 mg/kg compound (C57 Mice [2]): 15.8 g/dL; EPO (ng/mL) oral gavage 10 mg/kg (C57 Mice [1]): 190 ng/mL; EPO (ng/mL) oral gavage 30 mg/kg (C57 Mice [1]): 6234 ng/mL

How did the “EPO (ng/mL) oral gavage 100 mg/kg” value (C57 Mice [1]) turn out when `O=C(O)CNC(=O)c1c(O)c2ccccc2n(OCc2ccc(C(F)(F)F)cc2)c1=O` [Example 12, 2-(4-hydroxy-2-oxo-1-((4-(trifluoromethyl)benzyl)oxy)-1,2-dihydroquinoline-3-carboxamido)acetic acid] was run?
The value was 7056 ng/mL.

`Cc1csc2c(O)c(C(=O)NCC(=O)O)c(=O)n(OCc3c(F)cccc3F)c12` [Example 42, 2-(4-((2,6-difluorobenzyl)oxy)-7-hydroxy-3-methyl-5-oxo-4,5-dihydrothieno[3,2-b]pyridine-6-carboxamido)acetic acid] was tested. Which “Hemoglobin (g/dL) 20 mg/kg compound” value (C57 Mice [2]) did it give?
Its value is 16.1 g/dL.

`O=C(O)CNC(=O)c1c(O)c2nccnc2n(OCc2c(F)cccc2F)c1=O` [Example 36, 2-(5-((2,6-difluorobenzyl)oxy)-8-hydroxy-6-oxo-5,6-dihydropyrido[2,3-b]pyrazine-7-carboxamido)acetic acid] was tested. Which “Hemoglobin (g/dL) 20 mg/kg compound” value (C57 Mice [2]) did it give?
Its value is 14.2 g/dL.

How did the “Hemoglobin (g/dL) 20 mg/kg compound” value (C57 Mice [2]) turn out when `O=C(O)CNC(=O)c1c(O)c2cncnc2n(OCc2c(F)cccc2F)c1=O` [Example 46, 2-(8-((2,6-difluorobenzyl)oxy)-5-hydroxy-7-oxo-7,8-dihydropyrido[2,3-d]pyrimidine-6-carboxamido)acetic acid] was run?
Its value is 14.2 g/dL.

With `CCOn1c(=O)c(C(=O)NCC(=O)O)c(O)c2ccccc21` [Example 63, 2-(1-ethoxy-4-hydroxy-2-oxo-1,2-dihydroquinoline-3-carboxamido)acetic acid] as the compound, how does the “EPO (ng/mL) oral gavage 50 mg/kg” value (C57 Mice [1]) read?
The value was 539 ng/mL.

`C=CCOn1c(=O)c(C(=O)NCC(=O)O)c(O)c2ccccc21` [Example 15, 2-(1-(allyloxy)-4-hydroxy-2-oxo-1,2-dihydroquinoline-3-carboxamido)acetic acid] was tested. Which “Hemoglobin (g/dL) 20 mg/kg compound” value (C57 Mice [2]) did it give?
The value was 13.2 g/dL.

And the “EPO (ng/mL) oral gavage 10 mg/kg” value (C57 Mice [1])?
Its value is 315 ng/mL.

What about the “EPO (ng/mL) oral gavage 50 mg/kg” value (C57 Mice [1]) of the same compound?
The value was 4269 ng/mL.

For `CC(C)On1c(=O)c(C(=O)NCC(=O)O)c(O)c2ccccc21` [Example 25, 2-(4-hydroxy-1-isopropoxy-2-oxo-1,2-dihydroquinoline-3-carboxamido)acetic acid], which “Hemoglobin (g/dL) 20 mg/kg compound” value (C57 Mice [2]) is on record?
The value was 14.9 g/dL.

With `C=CCOn1c(=O)c(C(=O)NCC(=O)O)c(O)c2ccc(N3CCOCC3)cc21` [Example 48, 2-(1-(allyloxy)-4-hydroxy-7-morpholino-2-oxo-1,2-dihydroquinoline-3-carboxamido)acetic acid] as the compound, how does the “Hemoglobin (g/dL) 20 mg/kg compound” value (C57 Mice [2]) read?
Its value is 13.9 g/dL.

How did the “Hemoglobin (g/dL) 20 mg/kg compound” value (C57 Mice [2]) turn out when `C=CCOn1c(=O)c(C(=O)NCC(=O)O)c(O)c2sccc21` [Example 10, 2-(4-(allyloxy)-7-hydroxy-5-oxo-4,5-dihydrothieno[3,2-b]pyridine-6-carboxamido)acetic acid] was run?
Its value is 13.8 g/dL.

Which “Hemoglobin (g/dL) 20 mg/kg compound” value (C57 Mice [2]) does the source give for `CCCOn1c(=O)c(C(=O)N[C@@H](C)C(=O)O)c(O)c2ccccc21` [Example 73, (S)-2-(4-hydroxy-2-oxo-1-propoxy-1,2-dihydroquinoline-3-carboxamido)propanoic acid] here?
Its value is 16.2 g/dL.

`O=C(O)CCNC(=O)c1c(O)c2ccccc2n(OCC2CC2)c1=O` [Example 56, 3-(1-(cyclopropylmethoxy)-4-hydroxy-2-oxo-1,2-dihydroquinoline-3-carboxamido)propanoic acid] was tested. Which “Hemoglobin (g/dL) 20 mg/kg compound” value (C57 Mice [2]) did it give?
Its value is 14.4 g/dL.

Which “Hemoglobin (g/dL) 20 mg/kg compound” value (C57 Mice [2]) does the source give for `COC(=O)CNC(=O)c1c(O)c2ccccc2n(OCC2CC2)c1=O` [Example 53, methyl-2-(1-(cyclopropylmethoxy)-4-hydroxy-2-oxo-1,2-dihydroquinoline-3-carboxamido)acetate] here?
The value was 15.2 g/dL.

How did the “EPO (ng/mL) oral gavage 50 mg/kg” value (C57 Mice [1]) turn out when `O=C(O)CNC(=O)c1c(O)c2ccc(Cl)cc2n(OCc2c(F)cccc2F)c1=O` [Example 20, 2-(7-chloro-1-((2,6-difluorobenzyl)oxy)-4-hydroxy-2-oxo-1,2-dihydroquinoline-3-carboxamido)acetic acid] was run?
The value was 3797 ng/mL.
